The results in this text go back to patent US9179668B2, “Use of glycerol ethers as activators of the biological effects of a herbicide, fungicide or insecticide substance” (FONDS DE DEVELOPPEMENT DES FILIERES DES OLEAGINEUX ET …, priority 2009, dated 2015).

For series [1], the system named is Lucilia caesar. The experiment in a line: Spraying of insecticide solution on 30 flies in a cage; degree of mortality. Particulars: 1.8 g of solution; for degree of mortality: diflubenzuron 39.0 mg/l + glycerol ether 47.0 mg/l (cage 2). Format: in vivo. How it is done:
30 flies of the species Lucilia caesar were introduced into each of the cages made with a cubic frame from lengths of wood and mosquito screens. One of the faces was pierced with a hole through which a sprayer for the test solution is introduced: • in cage 1, 1.8 g of a solution comprising 39.0 mg/l of diflubenzuron were sprayed • in cage 2, 1.8 g of a solution comprising 39.0 mg/l of diflubenzuron and 47.0 mg/l of 3-isopropyloxypropane-1,2-diol were sprayed.

The test system of series [2] is herbaceous plants. The experiment in a line: Spraying of herbicide solutions on 50×50 cm plots of land with herbaceous plants; deterioration of the vegetation observed. The format is in vivo. How it is done:
The following tests were carried out on plots of land of 50×50 cm on which herbaceous plants occur. Each of the solutions tested is sprayed over a plot which is assigned to it.
The time necessary for the complete destruction of the vegetation was compared, on similar plots planted with herbaceous plants, with a herbicide alone, on the one hand, and the same herbicide to which has been added a glycerol ether: 3-methyloxypropane-1,2-diol, on the other hand.
A solution comprising 6 g/l of glyphosate (in the acid form) was sprayed over plot 1 in a proportion of 36 grams to the m^2.
A solution comprising […] and 0.9 g/l of 3-methyl-oxypropane-1,2-diol was sprayed over plot 2 in a proportion of 36 grams to the m^2.
The following sprayings were carried out on 4 plots covered with herbaceous plants: • Plot 1: glyphosate at 6 g/l (36 g of the solution to the m^2) • Plot 2: glyphosate at 4.5 g/l (36 g of the solution to the m^2) • Plot 3: a solution of glyphosate at 1.5 g/l 3-pentyloxypropane-1,2-diol at 0.9 g/l, in a proportion of 36 g of the solution to the m^2. • Plot 4: a solution of glyphosate at […] 3-pentyloxypropane-1,2-diol at 0.9 g/l, in a proportion of 36 g of the solution to the m^2.

The test system of series [3] is Candida albicans. The experiment in a line: Candida albicans on agar in a Petri dish with impregnated blotting paper disks; inhibition regions observed. Format: cell-based. The text has this: In the following examples, the Candida albicans test strain used is sold under the reference ATCC 10231, Collection Institut Pasteur.
A Candida albicans strain was inoculated on agar in a Petri dish. Disks of blotting paper impregnated with the following solutions were subsequently deposited at its surface:
• disk 1 is impregnated with a solution comprising […] • disk 2 is impregnated with a solution comprising 0.5 g/l of mancozeb • disk 3 is impregnated with a solution comprising 0.2 g/l of mancozeb • disk 4 is impregnated with a solution comprising 0.2 g/l of mancozeb and 0.1 g/l of 3-butyloxypropane-1,2-diol.

Series [4] deals with Sitobion avenae. Nature of the series: Spraying of insecticide solution on 25 aphids in a Petri dish; degree of mortality. To be noted: read-out: degree of mortality. Format: in vivo. How it is done:
The aphids of the species Sitobion avenae used in the following examples were supplied by the Université de Picardie d'Amiens [University of Picardy of Amiens], laboratoire de biologie des plantes et contrôle des insectes ravageurs [Plant Biology and Insect Pest Control Laboratory], EA3900, 33, rue Saint Leu, Amiens 80000.
25 aphids of the species Sitobion avenae were introduced into a Petri dish into which the test solution was sprayed: • in dish 1, 1.8 g of a solution comprising 39.0 mg/l of diflubenzuron were sprayed; • in dish 2, 1.8 g of a solution comprising 39.0 mg/l of diflubezuron and 47.0 mg/l of 3-isopropyloxypropane-1,2-diol were sprayed.

The mark [5] stands for this setting: glyphosate 1.5 g/l + glycerol ether 0.9 g/l, 36 g of solution per m^2.
[6] abbreviates: glyphosate 3 g/l + glycerol ether 0.9 g/l, 36 g of solution per m^2.
[7] abbreviates: glyphosate 6 g/l + glycerol ether 0.9 g/l, 36 g of solution per m^2 (plot 2).
Setting [8] is: glyphosate 6 g/l alone, 36 g of solution per m^2 (plot 1).

`CC(C)OCC(O)CO` (centres unmarked) [3-isopropyloxypropane-1,2-diol]: the degree of mortality in series [1] is listed as 64%. Moreover, the entries for the “state of plot after 30 days” value in series [2] (setting [5]) and in series [2] (setting [6]) were “unaffected” and “completely deteriorated”, respectively. Further, the “time after which deterioration began” value in series [2] (setting [7]) stood at 3 days. For the same compound, in series [2] (setting [7]), the “time after which deterioration was complete” value was found to be 12 days.

Regarding `CCCCC(CC)COCC(O)CO` (centres unmarked) [3-(2-ethylhexyloxy)propane-1,2-diol], the degree of mortality in series [1] came out at 56%. Also, the “state of plot after 30 days” value in series [2] (setting [5]) is recorded as “unaffected”. For the same compound, the “state of plot after 30 days” value in series [2] (setting [6]) was “completely deteriorated”. Moreover, in series [2] (setting [7]), the “time after which deterioration began” value worked out at 3 days and the “time after which deterioration was complete” value is 11 days. In addition, in series [3] (mancozeb 0.2 g/l + glycerol ether 0.05 g/l (disk 4)), the “inhibition region of growth around the disk” value (“inhibition region” for short) is given as “circular regions of inhibition of the growth”.

On to `O=C(O)CNCP(=O)(O)O` [glyphosate, reference compound], for which the “state of plot after 30 days” value in series [2] (glyphosate 4.5 g/l alone, 36 g of solution per m^2 (plot 2)) is given as “unaffected”. In series [2] (setting [8]), the “state of plot after 30 days” value is “completely deteriorated”, the “time after which deterioration began” value is listed as 8 days and the “time after which deterioration was complete” value came out at 18 days.

With `Cc1nc(N(C)C)nc(OC(=O)N(C)C)c1C` [pirimicarb], in series [4], the mortality (usually the percentage killed) at 78.1 µg/mL stood at 16%.

On to `COCC(O)CO` (centres unmarked) [3-methyloxypropane-1,2-diol], for which, in series [2] (setting [7]), the “time after which deterioration began” value is recorded as 4 days and the “time after which deterioration was complete” value is 13 days.

For `CCCCCCOCC(O)CO` (centres unmarked) [3-hexyloxypropane-1,2-diol], in series [2] (setting [5]), the “state of plot after 30 days” value is listed as “unaffected”. Further, in series [2] (setting [6]), the “state of plot after 30 days” value is “completely deteriorated”. Also, in series [2] (setting [7]), the “time after which deterioration began” value worked out at 3 days and the “time after which deterioration was complete” value amounted to 10 days.

Take `CC(C)CCCCCCOCC(O)CO` (centres unmarked) [3-isononyloxypropane-1,2-diol]: the “state of plot after 30 days” value is “unaffected” in series [2] (setting [5]) and “completely deteriorated” in series [2] (setting [6]).

Regarding `COCC(O)COC` [1,3-dimethyloxypropan-2-ol], in series [2] (setting [7]), the “time after which deterioration began” value worked out at 4 days and the “time after which deterioration was complete” value is recorded as 15 days.

Regarding `O=C(NC(=O)c1c(F)cccc1F)Nc1ccc(Cl)cc1` [diflubenzuron, reference compound], the mortality at 39 µg/mL amounted to 29% in series [1] (Lucilia caesar, diflubenzuron 39.0 mg/l alone (cage 1)) and 21% in series [4].

`CCCCCCCCCCOCC(O)CO` (centres unmarked) [3-decyloxypropane-1,2-diol]: in series [2] (setting [7]), the “time after which deterioration began” value is listed as 4 days and the “time after which deterioration was complete” value amounted to 11 days.

mancozeb [reference compound]: the figures for the “inhibition region” value in series [3] (mancozeb 0.2 g/l alone (disk 3)), in series [3] (mancozeb 0.5 g/l alone (disk 2)) and in series [3] (mancozeb 0.8 g/l alone (disk 1)) were “absence was observed of an inhibition region”, “absence was observed of an inhibition region” and “circular regions of inhibition of the growth”, respectively.

Turning to `CCOCC(O)COCC` [1,3-diethyloxypropan-2-ol], in series [2] (setting [7]), the “time after which deterioration began” value turned out to be 4 days and the “time after which deterioration was complete” value is 13 days.

Turning to `CCCCOCC(O)CO` (centres unmarked) [3-butyloxypropane-1,2-diol], in series [2] (setting [5]), the “state of plot after 30 days” value was “unaffected”. In series [2] (setting [6]), the “state of plot after 30 days” value is recorded as “completely deteriorated”. In series [2] (setting [7]), the “time after which deterioration began” value is 3 days and the “time after which deterioration was complete” value came to 10 days. In series [3] (mancozeb 0.2 g/l + glycerol ether 0.1 g/l (disk 4)), the “inhibition region” value is listed as “circular regions of inhibition of the growth”.

In the case of `CCOCC(O)CO` (centres unmarked) [3-ethyloxypropane-1,2-diol], in series [2] (setting [7]), the “time after which deterioration began” value came to 3 days and the “time after which deterioration was complete” value turned out to be 11 days.

As for `CCCCCOCC(O)CO` (centres unmarked) [3-pentyloxypropane-1,2-diol], in series [2] (glyphosate 0.75 + glycerol ether 0.9 g/l, 36 g of solution per m^2), the “state of plot after 30 days” value is “unaffected”. Moreover, in series [2] (setting [5]), the “state of plot after 30 days” value was “completely deteriorated”. In addition, in series [2] (setting [7]), the “time after which deterioration began” value was found to be 3 days and the “time after which deterioration was complete” value was 10 days. In series [3] (mancozeb 0.2 g/l + glycerol ether 0.25 g/l (disk 4)), the “inhibition region” value was “circular regions of inhibition of the growth”.
